Experimental data taken from patent US20230293411A1, “BIODEGRADABLE UV ABSORBERS” (BASF SE, priority 2020, published 2023).
Counter-ions that a name gives are not always drawn. Like-named read-outs stand apart in the source and are kept apart here.

Assays:
[1] = Specific extinction coefficient by UV/VIS spectrophotometry in water; type: physicochemical
[2] = Biodegradation, OECD 301F manometric respirometry test; settings: inferred from components; the salt itself was not tested
[3] = Absorbance of croconic acid salts in formulation on PMMA plates; type: physicochemical; settings: for Absorbance of the formulation: Formulations 1 and 2, 30 mg on PMMA plate, 15 minutes equilibration, 290-400 nm, FIG. 2, compared to Table 1
Method: The absorbance of Formulation 1 and 2 was determined as follows: […]
30 mg milligram of product were evenly spread on roughened PMMA plates (Heliosplate SB6, Helioscreen Creil/France) using a presaturated finger cot. After an equilibration time of 15 minutes transmission measurements between 290 and 400 nm were carried out using a spectrophotometer equipped with an integrating sphere (UV Transmittance Analyzer UV1000-S, Labsphere North Sutton/US).

## O=c1c([O-])c([O-])c(=O)c1=O.[K+].[K+] [Comp. Compound 2, 4,5-Dihydroxy-4-cyclopentene-1,2,3-trione di-Potassium Salt]
[1]
  E1, 1 (specific extinction coefficient at λmax): 1704
  Maximum absorbance wavelength (λmax): 364 nm

## O=c1c(O)c(O)c(=O)c1=O [Compound A, 4,5-Dihydroxy-4-cyclopentene-1,2,3-trione di-triethanolammonium Salt]
[1]
  E1, 1 (specific extinction coefficient at λmax): 844
  Maximum absorbance wavelength (λmax): 364 nm
[2]
  Biodegradability concluded from croconic acid and triethanolamine: biodegradable
[3]
  Absorbance of the formulation: within the expected range

## O=c1c([O-])c([O-])c(=O)c1=O.[Na+].[Na+] [Comp. Compound 1, 4,5-Dihydroxy-4-cyclopentene-1,2,3-trione di-Sodium Salt]
[1]; in water, d=1 cm, at λmax
  E1, 1 (specific extinction coefficient at λmax): 1996
[1]; in water, optical pathlength d=1 cm, spectrum 250 nm to 500 nm
  Maximum absorbance wavelength (λmax): 364 nm
[3]
  Absorbance of the formulation: lower
[3]; in formulation on PMMA plate
  Crystallization after water evaporation: crystallization
